Measured values: ChEMBL document CHEMBL3616438, “Molecular modeling studies and synthesis of novel quinoxaline derivatives with potential anticancer activity as inhibitors of c-Met kinase” (Bioorg Med Chem, 2015)
≈ marks a conversion by molar mass, not a printed value.

Columns and labels:
Format in all cases: functional, cell-based
SF-268 = assay: Cytotoxicity against human SF268 cells assessed as inhibition of cell viability after 72 hrs by SRB assay
NCI-H460 = assay: Cytotoxicity against human NCI-H460 cells assessed as inhibition of cell viability after 72 hrs by SRB assay
MCF7 = assay: Cytotoxicity against human MCF7 cells assessed as inhibition of cell viability after 72 hrs by SRB assay

| Compound | IC50 (SF-268) | IC50 (NCI-H460) | IC50 (MCF7) |
| --- | --- | --- | --- |
| O=c1[nH]c2ccc(Br)cc2nc1/C=C/c1ccc(Br)cc1 | 0.04066 µg/mL (≈ 0.1 µM) | 0.03632 µg/mL (≈ 0.0894 µM) | 0.03223 µg/mL (≈ 0.0794 µM) |
| O=c1[nH]c2ccc(Br)cc2nc1/C=C/c1ccc(O)cc1 | 0.02283 µg/mL (≈ 0.0665 µM) | 0.02281 µg/mL (≈ 0.0665 µM) | 0.02281 µg/mL (≈ 0.0665 µM) |
| Cc1ccc(/C=C/c2nc3cc(Br)ccc3[nH]c2=O)cc1 | 0.0168 µg/mL (≈ 0.0492 µM) | 0.00812 µg/mL (≈ 0.0238 µM) | 0.02221 µg/mL (≈ 0.0651 µM) |
| COc1ccc(/C=C/c2nc3cc(Br)ccc3[nH]c2=O)cc1 | 0.2 µg/mL (≈ 0.56 µM) | 0.06 µg/mL (≈ 0.168 µM) | 0.06 µg/mL (≈ 0.168 µM) |
| CCOC(=O)Cn1c(=O)c(C)nc2cc(Br)ccc21 | 0.00863 µg/mL (≈ 0.0265 µM) | 0.01042 µg/mL (≈ 0.032 µM) | 0.0224 µg/mL (≈ 0.0689 µM) |
| Cc1nc2cc(Br)ccc2n(CC(=O)NN)c1=O | 0.06 µg/mL (≈ 0.193 µM) | 0.02 µg/mL (≈ 0.0643 µM) | 0.01 µg/mL (≈ 0.0321 µM) |
| Cc1nc2cc(Br)ccc2nc1N1CCCCC1 | 0.03044 µg/mL (≈ 0.0994 µM) | 0.04032 µg/mL (≈ 0.132 µM) | 0.03361 µg/mL (≈ 0.11 µM) |
| Cc1nc2cc(Br)ccc2nc1Nc1ccc(S(=O)(=O)N2CCCCC2)cc1 | 0.0018 µg/mL (≈ 0.0039 µM) | 0.67 µg/mL (≈ 1.45 µM) | 0.00162 µg/mL (≈ 0.00351 µM) |
| Cc1nc2cc(Br)ccc2nc1NN | 0.01682 µg/mL (≈ 0.0665 µM) | 0.02062 µg/mL (≈ 0.0815 µM) | 0.02427 µg/mL (≈ 0.0959 µM) |
| Cc1cc(C)n(-c2nc3ccc(Br)cc3nc2C)n1 | 0.04541 µg/mL (≈ 0.143 µM) | 0.0346 µg/mL (≈ 0.109 µM) | 0.02355 µg/mL (≈ 0.0742 µM) |
| Cc1nc2cc(Br)ccc2n2nnnc12 | 0.0203 µg/mL (≈ 0.0769 µM) | 0.0208 µg/mL (≈ 0.0788 µM) | 0.03309 µg/mL (≈ 0.125 µM) |
| Cc1nc2cc(Br)ccc2nc1Sc1ccccc1 | 0.01816 µg/mL (≈ 0.0548 µM) | 0.01842 µg/mL (≈ 0.0556 µM) | 0.01222 µg/mL (≈ 0.0369 µM) |
| Cc1nc2cc(Br)ccc2nc1Oc1ccccc1N | 0.06 µg/mL (≈ 0.182 µM) | 0.03 µg/mL (≈ 0.0909 µM) | 0.02 µg/mL (≈ 0.0606 µM) |
| Cc1nc2cc(Br)ccc2nc1Oc1ccc(N)cc1 | 0.08 µg/mL (≈ 0.242 µM) | 0.52 µg/mL (≈ 1.57 µM) | 0.81 µg/mL (≈ 2.45 µM) |
| Cc1nc2cc(Br)ccc2nc1Oc1ccc(/N=C\c2ccc(Cl)cc2)cc1 | 0.02 µg/mL (≈ 0.0442 µM) | 0.08 µg/mL (≈ 0.177 µM) | 0.08 µg/mL (≈ 0.177 µM) |
| Cc1nc2cc(Br)ccc2nc1Oc1ccc(C=O)cc1 | 0.0405 µg/mL (≈ 0.118 µM) | 0.02845 µg/mL (≈ 0.0829 µM) | 0.03278 µg/mL (≈ 0.0955 µM) |
| Cc1nc2cc(Br)ccc2nc1Oc1ccc(/C=N\c2ccc(Cl)cc2)cc1 | 0.03043 µg/mL (≈ 0.0672 µM) | 0.01866 µg/mL (≈ 0.0412 µM) | 0.01263 µg/mL (≈ 0.0279 µM) |
| COc1cccc2c1C(=O)c1c(O)c3c(c(O)c1C2=O)C[C@@](O)(C(=O)CO)C[C@@H]3O[C@H]1C[C@H](N)[C@H](O)[C@H](C)O1 [DOXORUBICIN] | 0.09 µg/mL (≈ 0.166 µM) | 0.09 µg/mL (≈ 0.166 µM) | 0.04 µg/mL (≈ 0.0736 µM) |
